From patent publication US9073821B2, “Hydroxamic acid derivative” (priority 2010, dated 2015)
≈ marks a conversion by molar mass, not a printed value. Where two headings read alike, the source gives them in different places.

Tests used:
[1] = target: Pseudomonas aeruginosa LpxC enzyme (Pseudomonas aeruginosa (strain ATCC 15692 / DSM 22644 / CIP 104116 / JCM 14847 / LMG 12228 / 1C / PRS 101 / PAO1), UniProt P47205); experiment: biochemical; type: biochemical
[2] = test system: Pseudomonas aeruginosa strain TS88 (clinical isolate); experiment: Antimicrobial activity, MIC by broth microdilution; type: cell-based; details: Table 1, 35° C., 18 hours, read-out: MIC Pseudomonas aeruginosa TS88 strain
Excerpt: Test 3: Evaluation of Antimicrobial Activity For minimum inhibitory concentration (MIC) measurement, the following broth microdilution method was applied as adapted from the standard procedure recommended by the CLSI (Clinical and Laboratory Standards Institute). The bacteria used were Pseudomonas aeruginosa strain TS88 (clinical isolate), E. coli strain ATCC25922, and Klebsiella pneumoniae strain ATCC13883. After culture overnight on a heart infusion agar medium, the cells of a test bacterium were scraped off and suspended to give a turbidity of level 0.5 on the McFarland scale; the suspension was then diluted 10 fold to prepare an inoculum solution. A 0.005 mL aliquot of the inoculum solution was inoculated in a cation-adjusted Mueller-Hinton broth medium containing a test compound and cultured at 35° C. for 18 hours. A minimum drug concentration at which no cell growth was visible to the naked eye was designated as MIC.

[3] = Table 1, read-out: Pseudomonas aeruginosa LpxC IC50
[4] = inhibitory activity on Pseudomonas aeruginosa LpxC enzyme, class symbols A/B/C, read-out: Enzyme inhibitory activity
[5] = class symbols A/B/C by IC50, Table 3, read-out: Enzyme inhibitory activity (inhibitory activity on Pseudomonas aeruginosa LpxC enzyme)

SMILES	IC50 [1, 4] [nM]	MIC [2] [µg/mL]	also measured
CNC(=O)C(C(=O)NO)N(C)C(=O)c1ccc(-c2ccc(OC)cc2)cc1 (centres unmarked) [Compound 3]	–	0.5 (≈ 1.35 µM)	IC50 [1, 3]: 3.3 nM
CNC(=O)C(C(=O)NO)N(C)C(=O)c1ccc(-c2ccc(NC)cc2)cc1 (centres unmarked) [Compound 2, N-hydroxy-N′-methyl-2-(methyl {[4′-(methylamino)biphenyl-4-yl]carbonyl}amino)propanediamide]	–	0.5 (≈ 1.35 µM)	IC50 [1, 3]: 7.1 nM
CNc1ccc(-c2ccc(C(=O)N(C)C(C(=O)NO)C(=O)NCc3cc(C)on3)cc2)cc1 (centres unmarked) [Compound 77, N-hydroxy-2-(methyl {[4′-(methylamino)biphenyl-4-yl]carbonyl}amino)-N′-[(5-methyl-1,2-oxazol-3-yl)methyl]propanediamide]	–	4 (≈ 8.86 µM)	IC50 [1, 3]: 7.5 nM
CNC(=O)C(C(=O)NO)N(C)C(=O)c1ccc(-c2ccc(OCCCN3CCOCC3)cc2)cc1.Cc1ccc(S(=O)(=O)O)cc1 (centres unmarked) [Compound 7b, N-hydroxy-N′-methyl-2-[methyl({4′-[3-(morpholin-4-yl)propoxy]biphenyl-4-yl}carbonyl)amino]propanediamide 4-methylbenzenesulfonate]	–	2	–
CNC(=O)C(C(=O)NO)N(C)C(=O)c1ccc(-c2ccc(OCCCN3CCOCC3)cc2)cc1 (centres unmarked) [Compound 7, N-hydroxy-N′-methyl-2-[methyl({4′-[3-(morpholin-4-yl)propoxy]biphenyl-4-yl}carbonyl)amino]propanediamide]	–	2 (≈ 4.13 µM)	–
CNC(=O)C(NC(=O)c1ccc(-c2ccc(NCCO)cc2)cc1)C(=O)NO (centres unmarked) [Compound 114, N-hydroxy-2-[({4′-[(2-hydroxyethyl)amino]biphenyl-4-yl}carbonyl)amino]-N′-methylpropanediamide]	10 to 100	–	–
CNC(=O)C(C(=O)NO)N(C)C(=O)c1ccc(C#Cc2ccc(CN3CC(OC)C3)cc2)cc1 (centres unmarked) [Compound 505, N-hydroxy-2-[{[4-({4-[(3-methoxyazetidin-1-yl)methyl]phenyl}ethynyl)phenyl]carbonyl}(methyl)amino]-N′-methylpropanediamide]	–	–	IC50 [1, 5]: < 10 nM
CN(C(=O)c1ccc(C#Cc2ccc(CN3CCCOCC3)cc2)cc1)C(C)(C(=O)NO)C(=O)NCc1ccccn1 (centres unmarked) [Compound 521, N-hydroxy-2-methyl-2-{methyl[(4-{[4-(1,4-oxazepan-4-ylmethyl)phenyl]ethynyl}phenyl)carbonyl]amino}-N′-(pyridin-2-ylmethyl)propanediamide]	–	–	IC50 [1, 5]: < 10 nM
CNC(=O)C(C(=O)NO)N(C)C(=O)c1ccc(C#Cc2ccc(OCC(O)CO)cc2)cc1 (centres unmarked) [Compound 320, 2-{[(4-{[4-(2,3-dihydroxypropoxy)phenyl]ethynyl}phenyl)carbonyl](methyl)amino}-N-hydroxy-N′-methylpropanediamide]	< 10	–	–
O=C(NC(C(=O)NO)C(=O)NC1CC1)c1ccc(-c2ccc(OCCO)cc2)cc1 (centres unmarked) [Compound 121, N-cyclopropyl-N′-hydroxy-2-({[4′-(2-hydroxyethoxy)biphenyl-4-yl]carbonyl}amino)propanediamide]	10 to 100	–	–

Continued, in another order:

IC50 [1, 4] [nM]	SMILES	MIC [2] [µg/mL]	also measured
< 10	CNC(=O)C(C(=O)NO)N(C)C(=O)c1ccc(-c2ccc(OCCCN3CCOC3=O)cc2)cc1 (centres unmarked) [Compound 71, N-hydroxy-N′-methyl-2-[methyl({4′-[3-(2-oxo-1,3-oxazolidin-3-yl)propoxy]biphenyl-4-yl}carbonyl)amino]propanediamide]	–	–
< 10	CNC(=O)C(C(=O)NO)N(C)C(=O)c1ccc(-c2ccc(NCCO)cc2)cc1 (centres unmarked) [Compound 179, N-hydroxy-2-[({4′-[(2-hydroxyethyl)amino]biphenyl-4-yl}carbonyl)(methyl)amino]-N′-methylpropanediamide]	–	–
10 to 100	CCCNc1ccc(C#Cc2ccc(C(=O)N(C)C(C(=O)NC)C(=O)NO)cc2)nc1 (centres unmarked) [Compound 407, N-hydroxy-N′-methyl-2-{methyl[(4-{[5-(propylamino)pyridin-2-yl]ethynyl}phenyl)carbonyl]amino}propanediamide]	–	–
> 100	CNC(=O)C(C(=O)NO)N(C)C(=O)c1cnc(-c2ccccc2)cn1 (centres unmarked) [Compound 299, N-hydroxy-N′-methyl-2-{methyl[(5-phenylpyrazin-2-yl)carbonyl]amino}propanediamide]	–	–
